# Data published in patent publication US7964584B2, “Method of treating or preventing osteoporosis comprising administering to a patient in need thereof an effective amount of pharmaceutical composition comprising benzamidine derivatives or their salts, and alendronic acid or its salt” (Dong Wha Pharmaceutical Co., Ltd., priority 2008, dated 2011).
# Tested on: osteoclast differentiation (co-culture of bone marrow cells and osteoblasts)
# Test: Osteoclast differentiation via co-culture of bone marrow cells and osteoblasts, count of TRAP(+) MNCs
# Type: cell-based, mice
# Settings: individual treatment, 7 days culture; for relative number of TRAP(+) MNCs (mature osteoclasts with 6 or more nuclei), control group = 100%: n=4
# Protocol: The osteoclast differentiation was induced by co-culture system between bone marrow cells and […] inhibitory effect of the drug on osteoclast differentiation was evaluated by treatment of single or combination formulation. […] Cells were removed from the bone marrow cells, followed by centrifugation. After the bone marrow cells were suspended in α-MEM medium supplemented with 10% FBS, and the numbers of the eukaryotic cells in the harvested bone marrow cells were counted and then immediately used for a co-culture system. The mouse calvaria were aseptically isolated from 1 2 day-old neonatal ICR mice, and the […], primary osteoblasts were isolated by sequential treatment with an enzyme solution of 0.2% collagenase. The isolated […] centrifuged, resuspended with α-MEM containing 10% FBS and cultured until confluent. Then, these cells were diluted to a desired cell number, and used for the experiment. The bone marrow cells (1×10^5 cells/well) and osteoblasts (3,000 cells/well) prepared in the above were plated in a 96-well plate using α-MEM medium supplemented with 10% FBS. At this time, differentiation factors, 1α,25-dihydroxyvitamin D3 (10^-8 M, hereinbelow, referred to as vitamin D3) and dexamethasone (10^-8 M), were co-added to the osteoclastic medium. The medium was replaced with fresh media containing the differentiation factors every 2 to 3 days. After 7 days, when multinucleated osteoclasts were observed, the medium was removed from the wells, and then the cells were fixed with PBS containing 10% formalin. An index of osteoclast formation was determined by counting number of Tartrate-Resistant Acid Phosphatase-positive multinucleated osteoclasts (herein below, referred to as TRAP(+) MNCs). The TRAP staining solution was contained naphtol AS-MX phosphate(pH5.0)as a substrate, Fast Red violet LB as a coloring agent and 50 mM tartaric acid and stored at a refrigerator until use. The number of TRAP(+) MNCs containing more than 6-7 or more nuclei were counted under a microscope. […] All experiments were performed using the osteoclastic media containing vitamin D3 and dexamethasone. […] Sodium alendronate hydrate was dissolved in purified water at a concentration of 0.2 mM, and then diluted 1,000 fold with the osteoclastic media to a final concentration of 0.2 μM. In this connection, a control group was maintained in 0.1% DMSO. Each experiment was performed by individual or combination treatment, as follows. […] The number of TRAP(+) MNCs with 6 or more nuclei were counted under a microscope. The results were expressed as a percentage of the relative number of mature osteoclast observed in each experimental group, when the number of mature osteoclast in the control group (solvent only) was regarded as 100%. […]
SMILES,"relative number of TRAP(+) MNCs (mature osteoclasts with 6 or more nuclei), control group = 100% (0.1 μM)","relative number of osteoclast, control group = 100% (0.3 μM)","relative number of osteoclast, control group = 100% (0.5 μM)","relative number of TRAP(+) MNCs (mature osteoclasts with 6 or more nuclei), control group = 100% (0.2 μM)"
"CS(=O)(=O)O.CS(=O)(=O)O.Cc1nc(-c2ccc(OCCCCCOc3ccc(C(=N)NO)cc3)cc2)c(C(C)C)s1 [N-hydroxy-4-{5-[4-(5-isopropyl-2-methyl-1,3-thiazol-4-yl)phenoxy]pentoxy}benzamidine dimethanesulfonate]",significant reduction,52.4%,34.5%,
"NCCCC(O)(P(=O)(O)O)P(=O)(O)O [sodium alendronate, reference compound]",,,,80.6% and significantly reduced
